{"source": "patent US4710500A", "about": "“1-(4'-fluorophenyl)-3,5-substituted indoles useful in the treatment of psychic disorders and pharmaceutical compositions thereof” (H. Lundbeck A/S, priority 1985, dated 1987)", "key": {"[1]": {"system": "methylphenidate-induced gnawing", "assay": "Methylphenidate antagonism", "format": "in vivo, mice"}, "[2]": {"biological_target": "T1, 5-HT2 receptor (Rattus norvegicus, UniProt P14842)", "T1 construct": "from tissue; host or cells: living rats (in vivo), CNS", "T1 sequence (P14842 whole entry)": "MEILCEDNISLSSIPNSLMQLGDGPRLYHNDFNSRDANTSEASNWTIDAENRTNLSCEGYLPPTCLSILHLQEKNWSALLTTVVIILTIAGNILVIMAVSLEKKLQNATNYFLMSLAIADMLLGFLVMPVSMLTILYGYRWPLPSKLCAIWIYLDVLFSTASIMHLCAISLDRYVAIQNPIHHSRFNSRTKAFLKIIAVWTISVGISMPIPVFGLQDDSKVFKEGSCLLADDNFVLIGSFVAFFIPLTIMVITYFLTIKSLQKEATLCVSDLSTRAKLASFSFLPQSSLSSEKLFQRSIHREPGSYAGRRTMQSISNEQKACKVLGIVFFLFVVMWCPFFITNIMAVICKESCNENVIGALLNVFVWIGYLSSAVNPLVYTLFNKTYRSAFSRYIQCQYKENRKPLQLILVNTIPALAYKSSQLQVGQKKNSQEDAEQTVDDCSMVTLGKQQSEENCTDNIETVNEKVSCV", "assay": "Quipazine inhibition (head twitches)", "format": "in vivo", "settings": "for Qvipaz. inh. ED50(sc): sc 2 hours before quipazine 15 umol/kg sc", "experimental": "Quipazine and a number of other compounds, which increase 5-HT2 receptor activity in the CNS, induce a characteristic rapid shake (twitch) of the head. This response is inhibited by 5-HT2 receptor antagonists (Vetulani et al. 1980, Arnt et al. 1984).\nThe test compound or saline is injected subcutaneously 2 hours before subcutaneous injection of quipazine hemimalecate (15umol/kg). At least 3 dose groups, each consisting of at least 4 rats, are used. The rats are individually placed in observation cages (12×25 cm) and the number of head twitches are counted 30-40 min after quipazine administration. Inhibition of head twitches is expressed in per cent of the number of head twitches in the control group. ED 50 values are calculated by log-probit analysis.\nVetulani, J., B.B. Beduarczyk, K. Reichenberg and A. Rokost: Neuropharmacology 19, 155-158, […].\nArnt, J., J. Hyttel and J.-J. Larsen: Acta pharmacol. et toxicol. 55, 363-372, 1984."}, "[3]": {"assay": "Catalepsy", "format": "in vivo, rat"}, "[4]": {"biological_target": "T2, dopamine (DA) D-2 receptors (Rattus norvegicus, UniProt P61169)", "T2 construct": "DA D-2 receptors in rat striatal membranes; from tissue; host or cells: rat striatal membranes", "T2 sequence (P61169 whole entry)": "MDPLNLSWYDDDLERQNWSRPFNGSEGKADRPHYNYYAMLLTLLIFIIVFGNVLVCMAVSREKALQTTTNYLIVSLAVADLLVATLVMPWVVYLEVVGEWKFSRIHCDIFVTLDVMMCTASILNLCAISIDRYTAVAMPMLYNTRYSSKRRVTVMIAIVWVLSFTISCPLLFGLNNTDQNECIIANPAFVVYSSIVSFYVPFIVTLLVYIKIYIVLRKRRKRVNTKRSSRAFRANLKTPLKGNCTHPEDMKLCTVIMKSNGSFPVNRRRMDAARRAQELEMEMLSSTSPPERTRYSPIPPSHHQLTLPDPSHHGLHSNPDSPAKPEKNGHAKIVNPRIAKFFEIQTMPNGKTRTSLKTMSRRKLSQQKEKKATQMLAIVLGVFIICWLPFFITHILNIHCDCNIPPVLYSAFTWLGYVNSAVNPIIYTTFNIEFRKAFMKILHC", "assay": "3H-spiroperidol binding, dopamine D-2 receptors in rat striatal membranes", "experimental": "4. ^3 H-spiroperidol bindings\nThe affinity of compounds to dopamine (DA) D-2 receptors and serotomin2 (5-HT2) receptors was determined by in vitro receptor binding technique.\nArnt, J., J. Hyttel and J.-J. Larsen: Acta pharmacol. et toxicol."}, "[5]": {"settings": "Mus musculus, sc, read-out: MePh Antg. ED50 (sc)"}, "[6]": {"settings": "Mus musculus, ip; i.p. test substance; mice; methylphenidate s.c. 60 mg/kg; read-out: MePh Antg. ED50(ip)"}, "[7]": {"settings": "read-out: Catalep. ED50(po) 1-6 h, po, rat, 1-6 h"}, "[8]": {"settings": "read-out: Catalep. ED50(po) 24 h, po, rat, 24 h"}, "[9]": {"settings": "Rattus norvegicus, sc, 24 h, read-out: Catalep. ED50 (sc) 24 h"}, "[10]": {"settings": "Rattus norvegicus, sc, read-out: Catalep. ED50 (sc) 1-6 h"}}, "note": "Structures can show the parent of a compound that is named as a salt. Where two headings read alike, the source gives them in different places."}
{"smiles": "CN1CC=C(c2cn(-c3cccc(F)c3)c3ccc([N+](=O)[O-])cc23)CC1", "note": "[Lu 24-004, 1-(3'-Fluorophenyl)-5-nitro-3-(1-methyl-1,2,3,6-tetrahydropyridin-4-yl)-1H-indole, maleate]", "values": [{"measurement": "ED50", "setting": "[1]; [5]", "value": 1.1, "unit": "µmol/kg"}]}
{"smiles": "Fc1ccc(-n2cc(C3=CCNCC3)c3cc(C(F)(F)F)ccc32)cc1", "note": "[Lu 23-155, 1-(4'-Fluorophenyl)-3-(1,2,3,6-tetrahydropyridin-4-yl)-5-trifluoromethyl-1H-indole]", "values": [{"measurement": "ED50", "setting": "[1]; [5]", "value": 3.8, "unit": "µmol/kg"}]}
{"smiles": "O=C1NCCN1CCN1CC=C(c2cn(-c3ccc(F)cc3)c3ccccc23)CC1", "note": "[Lu 23-075, 1-(4'-Fluorophenyl)-3-(1-(2-imidazolidinon-1-ylethyl)-1,2,3,6-tetrahydropyridin-4-yl)-1H-indole, hydrochloride]", "values": [{"measurement": "ED50", "setting": "[2]; sc, 2 h, read-out: Qvipaz. inh. ED50(sc)", "value": 0.18, "unit": "µmol/kg"}, {"measurement": "ED50", "setting": "[1]; [5]", "value": 19, "unit": "µmol/kg"}]}
{"smiles": "CN1CCC(c2cn(-c3ccc(F)cc3)c3ccc(C(F)(F)F)cc23)CC1", "note": "[Lu 21-131, 1-(4'-Fluorophenyl)-3-(1-methyl-4-piperidyl)-5-trifluoromethyl-1H-indole, oxalate]", "values": [{"measurement": "ED50", "setting": "[1]; [6]", "value": 0.6, "unit": "µmol/kg"}, {"measurement": "ED50", "setting": "[3]; [7]", "value": 0.59, "unit": "µmol/kg"}, {"measurement": "ED50", "setting": "[3]; [8]", "value": 2.2, "unit": "µmol/kg"}]}
{"smiles": "Fc1ccc(-n2cc(C3=CCN(CCn4ccnc4)CC3)c3cc(C(F)(F)F)ccc32)cc1", "note": "[Lu 24-002, 1-(4'-Fluorophenyl)-3-(1-(1-imidazole-2-ethyl)-1,2,3,6-tetrahydropyridin-4-yl)-5-trifluoromethyl-1H-indole, dimaleate]", "values": [{"measurement": "Qvipaz. inh. ED50(sc)", "setting": "[2]", "value": "> 0.45", "unit": "µmol/kg"}, {"measurement": "ED50", "setting": "[1]; [5]", "value": 0.45, "unit": "µmol/kg"}]}
{"smiles": "CC(C)CN1CC=C(c2cn(-c3ccc(F)cc3)c3ccc(Cl)cc23)CC1", "note": "[Lu 22-134, 5-Chloro-1-(4'-fluorophenyl)-3-(1-isobutyl-1,2,3,6-tetrahydropyridin-4-yl)-1H-indole, hydrobromide]", "values": [{"measurement": "IC50", "setting": "[4]", "value": 5.3, "unit": "nM"}, {"measurement": "Qvipaz. inh. ED50(sc)", "setting": "[2]", "value": 2.5, "unit": "µmol/kg"}, {"measurement": "ED50", "setting": "[1]; Mus musculus, ip, read-out: MePh Antg. ED50(ip)", "value": 1.7, "unit": "µmol/kg"}, {"measurement": "ED50", "setting": "[3]; [9]", "value": "> 2.7", "unit": "µmol/kg"}, {"measurement": "ED50", "setting": "[3]; [10]", "value": 2.7, "unit": "µmol/kg"}]}
{"smiles": "CC(C)N1CC=C(c2cn(-c3ccc(F)cc3)c3ccc(F)cc23)CC1", "note": "[Lu 23-167, 5-fluoro-1-(4'-fluorophenyl)-3-(1-(2-propyl)-1,2,3,6-tetrahydropyridin-4-yl)-1H-indole, fumarate]", "values": [{"measurement": "ED50", "setting": "[1]; [5]", "value": 2.7, "unit": "µmol/kg"}, {"measurement": "ED50", "setting": "[3]; [9]", "value": "> 11", "unit": "µmol/kg"}, {"measurement": "ED50", "setting": "[3]; [10]", "value": 2.7, "unit": "µmol/kg"}]}
{"smiles": "OCCN1CC=C(c2cn(-c3ccc(F)cc3)c3ccc(Cl)cc23)CC1", "note": "[Lu 23-146, 5-Chloro-1-(4'-fluorophenyl)-3-(1-(2-hydroxyethyl)-1,2,3,6-tetrahydropyridin-4-yl)-1H-indole, hydrochloride]", "values": [{"measurement": "ED50", "setting": "[1]; [5]", "value": 0.73, "unit": "µmol/kg"}, {"measurement": "ED50", "setting": "[3]; [10]", "value": 1, "unit": "µmol/kg"}]}
{"smiles": "Fc1ccc(-n2cc(C3=CCNCC3)c3cc(F)ccc32)cc1", "note": "[Lu 23-159, 5-fluoro-1-(4'-fluorophenyl)-3-(1,2,3,6-tetrahydropyridin-4-yl)-1H-indole]", "values": [{"measurement": "ED50", "setting": "[1]; [5]", "value": 47, "unit": "µmol/kg"}]}
{"smiles": "Fc1ccc(-n2cc(N3CCN(CCN4CCCC4=S)CC3)c3cc(C(F)(F)F)ccc32)cc1", "note": "[Lu 23-018, 1-(4'-Fluorophenyl)-3-(4-(2-(pyrrolidin-2-thion-1-yl)-ethyl)-1-piperazino)-5-trifluoromethyl-1H-indole]", "values": [{"measurement": "ED50", "setting": "[1]; [6]", "value": 53, "unit": "µmol/kg"}, {"measurement": "ED50", "setting": "[3]; [7]", "value": 1.2, "unit": "µmol/kg"}, {"measurement": "ED50", "setting": "[3]; [8]", "value": 2.9, "unit": "µmol/kg"}]}
{"smiles": "Fc1ccc(-n2cc(C3=CCNCC3)c3cc(Cl)ccc32)cc1", "note": "[Lu 23-147, 5-Chloro-1-(4'-fluorophenyl)-3-(1,2,3,6-tetrahydropridin-4-yl)-1H-indole]", "values": [{"measurement": "ED50", "setting": "[1]; [5]", "value": "> 99", "unit": "µmol/kg"}]}
{"smiles": "Fc1ccc(-n2cc(C3=CCN(CCn4cccc4)CC3)c3cc(C(F)(F)F)ccc32)cc1", "note": "[Lu 23-172, 1-(4'-Fluorophenyl)-3-(1-pyrrolo-2-ethyl)-1,2,3,6-tetrahydropyridin-4-yl)-5-trifluoromethyl-1H-indole. maleate]", "values": [{"measurement": "IC50", "setting": "[4]; read-out: 3H-Spiroperidol bindings DA-2 receptors IC50, rat striatal membranes, in vitro", "value": 31, "unit": "nM"}, {"measurement": "Qvipaz. inh. ED50(sc)", "setting": "[2]", "value": "> 0.55", "unit": "µmol/kg"}, {"measurement": "ED50", "setting": "[1]; [5]", "value": "> 70", "unit": "µmol/kg"}]}
{"smiles": "O=C(CCCN1CCC(O)(c2ccc(Cl)cc2)CC1)c1ccc(F)cc1", "note": "[Haloperidol, reference compound]", "values": [{"measurement": "ED50", "setting": "[1]; [6]", "value": 0.11, "unit": "µmol/kg"}, {"measurement": "ED50", "setting": "[3]; [7]", "value": 1, "unit": "µmol/kg"}]}
{"smiles": "CCCCCCCC/C=C\\CCCCCCCC(=O)OCCN1CCN(c2cn(-c3ccc(F)cc3)c3ccc(C(F)(F)F)cc23)CC1", "note": "[Lu 23-163, 1-(4'-Fluorophenyl)-3-(4-(l-oleyloxyethyl)-1-piperazino)-5-trifluoromethyl-1H-indole, dihydrochloride]", "values": [{"measurement": "ED50", "setting": "[1]; Mus musculus, sc; read-out: MePh Antg. ED50 (sc)", "value": 1.1, "unit": "µmol/kg"}]}
{"smiles": "CN1CC=C(c2cn(-c3nccs3)c3ccc(F)cc23)CC1", "note": "[Lu 24-013, 5-Fluro-3-(1-methyl-1,2,3,6-tetrahydropyridin-4-yl)-1-(2-thiazolo)-1H-indole, fumarate]", "values": [{"measurement": "ED50", "setting": "[1]; [5]", "value": "> 20", "unit": "µmol/kg"}]}
